Results on 2 compounds are retold here after BindingDB's records for doi:10.1016/j.bmcl.2009.09.014 (Johnson & Johnson Pharmaceutical, 2009).

The assay has as its target Cathepsin S (Homo sapiens, UniProt P25774). In words: Cathepsn S Inhibition Assay. The settings on record: pH 5; 23 °C. The method, then:
Enzyme assays were run using fluorescence resonance energy transfer-based substrates, (Aedens)[…](Dabcyl)K-amide and cathepsin S cleaves between amino acids Leu-6 and Ala-7. The fluorescence of the aedens group is quenched by the dabcyl moiety in the intact peptide. Upon cleavage by cathepsin S, the quenching is released and the fluorescence of the aedens group can be measured. The increase in fluorescence was measured on a Cytofluor II (Applied Biosystems, Foster City, CA) with an excitation filter of 360/40 nm and an emission filter of 460/40 nm. A reading was made every minute for 20 to 60 min, and the slope obtained from a linear regression of this time course was used as the reaction rate. The reaction rates were determined for different inhibitor concentrations, and the percentage of inhibition was determined by comparison with the reaction rate in the absence of inhibitor. IC50 values were determined by four parameter fits of plots of the percentage of inhibition versus inhibitor concentration using the program GraFit (Erithacus Software Ltd.).

Chain of Cathepsin S (P25774 whole entry): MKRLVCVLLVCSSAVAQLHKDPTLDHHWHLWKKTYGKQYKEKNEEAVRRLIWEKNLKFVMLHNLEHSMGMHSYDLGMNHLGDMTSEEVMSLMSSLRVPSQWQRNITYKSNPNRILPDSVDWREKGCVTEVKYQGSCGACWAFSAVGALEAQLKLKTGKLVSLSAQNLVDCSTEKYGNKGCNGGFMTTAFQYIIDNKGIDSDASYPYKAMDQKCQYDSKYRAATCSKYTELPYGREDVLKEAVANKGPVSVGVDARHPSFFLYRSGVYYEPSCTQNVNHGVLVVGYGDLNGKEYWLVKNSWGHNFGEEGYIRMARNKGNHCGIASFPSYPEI

Regarding `C#Cc1cc(-c2nn(CCCN3CCOCC3)c3c2CN(S(C)(=O)=O)CC3)ccc1Cl` [arylalkyne pyrazole-based compound, 11], the IC50 (usually the concentration that gives 50% inhibition) worked out at 7.4 µM.
The same measure for `COC(=O)C(=O)N1CCc2c(c(-c3ccc(Cl)c(C#Cc4ccc(Cl)cc4)c3)nn2CCCN2CCOCC2)C1` [arylalkyne pyrazole-based compound, 33]: 0.04 µM.
